The record followed here is article PMC12539213, “Molecular targeting of the deubiquitinase USP14 to circumvent cisplatin resistance in ovarian carcinoma and identification of novel inhibitors” (Cancer Drug Resistance, 2025).

The target of test [1] is T1, USP14 (ubiquitin-specific protease 14) (Homo sapiens, UniProt P54578).
T1 construct: USP14 (6His-tagged), 64-0018-050, Ubiquigent; with Ub-VS-treated human 26S proteasome
The test can be described thus: Ub-Rho110-G hydrolysis assay, recombinant USP14 with Ub-VS-treated […] proteasome, dose-response. Type of test: biochemical.

Test [2] addresses T1, USP14 (ubiquitin-specific protease 14). The test can be described thus: Ub-Rho110-G hydrolysis assay, positive control at […] ([…] inhibition) and […] ([…]); also HA-Ub-VS labeling in IGROV-1/Pt1 cells. Type of test: biochemical.

T1 sequence (P54578 whole entry): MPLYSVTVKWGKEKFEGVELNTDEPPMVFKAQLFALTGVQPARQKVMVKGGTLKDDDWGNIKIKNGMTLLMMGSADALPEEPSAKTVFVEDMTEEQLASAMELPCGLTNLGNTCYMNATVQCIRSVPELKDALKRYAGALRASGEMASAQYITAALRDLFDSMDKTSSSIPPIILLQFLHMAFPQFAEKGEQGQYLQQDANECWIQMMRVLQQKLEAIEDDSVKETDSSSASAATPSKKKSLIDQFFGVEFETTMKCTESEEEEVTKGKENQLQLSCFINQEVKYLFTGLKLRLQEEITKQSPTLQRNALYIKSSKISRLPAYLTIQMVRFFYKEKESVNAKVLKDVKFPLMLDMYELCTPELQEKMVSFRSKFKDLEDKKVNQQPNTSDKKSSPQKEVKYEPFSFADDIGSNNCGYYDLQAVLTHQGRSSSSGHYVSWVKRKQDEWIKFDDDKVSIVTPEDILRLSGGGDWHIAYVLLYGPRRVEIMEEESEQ

A word on the IC50: it is the concentration needed to halve the response being measured. In the case of `CC1=NN(c2cccc(NC(=O)c3ccccc3Cn3ccnc3)c2)C(=O)C1` [ARN12502], the IC50 in test [1] was 18.4 ± 2.2 µM. As for `Cc1cc(C(=O)CN2CCCCC2)c(C)n1-c1ccc(Cl)cc1` [IU1-47], in test [2], the IC50 is ~ 200 nM.
